By melting point is commonly meant the temperature, or range, at which the solid turns liquid.

The compound `CCOC(=O)c1nn(-c2ccc(NC)cc2)c(=O)c2c(N)scc12` showed a melting point of 211 to 213 °C.
With `COC(=O)Cc1ccccc1OCc1ccccc1` the figure was 74 to 75 °C; with `COC(=O)Cc1cc(C(=O)c2ccc(F)cc2)ccc1O`, 173 °C; with `CC(C)c1ccc(C(=O)N(C(=N)N)C(=O)c2ccc(C(C)C)c(S(C)(=O)=O)c2)cc1S(C)(=O)=O`, 218 to 221 °C.
With `CCOC(=O)c1cc(=O)c2c(OCC(O)COc3cccc(C)c3)cccc2o1` (stereo not given) the figure was 72 to 74 °C.
Regarding `COC(=S)NCc1cn(-c2ccc(-n3ccc(C=O)c3)cc2)nn1`, the melting point fell in the range of 160 to 162 °C.
In the case of `O=C1c2ccccc2C(=O)N1CCC(=O)N(c1ccccc1)c1ccccc1` it was 140 °C; in that of `Nc1cnc(Cl)c(Cl)c1`, 110 to 113 °C; in that of `CC(C)Oc1ccc(F)cc1OCCN1C(=O)c2ccccc2C1=O`, 68 °C.
In the case of `O=C(O)COc1ccc2cc(-c3ccc(-c4ccccc4)n3Cc3ccccc3)ccc2c1` it was 171 to 172 °C; in that of `Cc1c(CO)nc2c(NC(=O)C(C)(C)C)cccn12`, 186 to 187 °C; in that of `CCOC(=O)C1=C(COCc2cc(=O)[nH]c(N)n2)NC(C)=C(C(=O)OC)C1c1cccc(Cl)c1Cl` (stereo not given), 222 to 225 °C.
With `Brc1cnn(Cc2ccccc2)c1` the figure was 51 to 52 °C.
For the compound `O=C(O)COc1ccc(Cl)cc1-c1ccc(C(=O)N2CCCC2)c(C(F)(F)F)c1`, the melting point fell in the range of 197 to 198 °C.
With `N#Cc1ccc2cc(CBr)ccc2c1`, the melting point is 134 to 137 °C.
In the case of `O=C1NC(=O)C(c2cn3c4c(cccc24)CCC3)C1c1ccc(OCc2ccccc2)cc1` (stereo not given) it was 91 to 93 °C; in that of `COc1cc(O)c2c(=O)c(OC)c(-c3ccc(N)cc3)oc2c1`, 221 °C; in that of `O=Cc1ccc2c(c1)S(=O)c1ccccc1CC2` (stereo not given), 158 to 160 °C.
In the case of `CN1C(=O)C(CCCN2CCN(c3ccc(F)cc3)CC2)Sc2ccccc21` (stereo not given) it was 103 to 104 °C; in that of `OCc1cc2ccccc2[nH]1`, 73.5 to 74.4 °C; in that of `CCOC(=O)N1CCN(c2nc(NC3CC3)ccc2[N+](=O)[O-])CC1`, 100 to 103 °C.
Consider `O=c1cc2c(nn1Cc1ccc(Cl)cc1)-c1ccccc1S(=O)(=O)CC2`, for which the melting point was 238 to 239 °C.
With `COC(=O)Cn1c(SCc2nccc(SCCN3CCOCC3)c2C)nc2ccccc21` the figure was 128 to 129 °C; with `CCC1(CCCCCl)C(=O)Nc2cc(F)c(Cl)cc21` (stereo not given), 131 to 133 °C; with `CC(c1oc2ccccc2c(=O)c1-c1cccc(F)c1)n1nc(-c2ccc3cn[nH]c3c2)c2c(N)ncnc21` (stereo not given), 206 to 208 °C.
With `COc1cccc(CCOc2cccc(-c3cccc(C(=O)NCCNC(=O)OC(C)(C)C)c3)n2)c1`, the melting point lay in the range of 128 to 129 °C.
In the case of `CCOC(=O)CCCN(C(=O)c1cccc(C(F)(F)F)c1)c1ccccc1-c1ccccc1` it was 65 to 67 °C; in that of `COc1cccc(N(CC(=O)N(C)c2ccccc2)C(=O)CN2C(=O)c3ccccc3C2=O)c1`, 137 °C.
In the case of `N#Cc1ccc2c(c1)c(C1CCC(=O)CC1)cn2Cc1ccccc1` it was 115 to 126 °C.
In the case of `C[C@H](O)Cn1c(=O)c(Oc2ccc(F)cc2F)cc2cnc(NC(C)(C)CO)nc21` it was 182 to 184 °C; in that of `O=c1[nH]c(=O)c2cc(N3CCCCC3)ccc2[nH]1`, > 280 °C; in that of `CCCCCCCCCCCCCCCCCC#CC(C(=O)OCC)C(=O)OCC`, 33 to 34 °C.
Compound `CC(=O)N1CCC(Oc2ccc(C(F)(F)F)cc2)(c2ccccc2)CC1` came in with a melting point of 96 to 100 °C.
With `Cc1cc(C)cc(N(CCCC(=O)O)Cc2ccc3nc(NCCCN4CCOCC4)n(Cc4nc(C)ccc4O)c3c2)c1` the figure was 121 °C; with `COCOc1cccc2c(=O)[nH]c(C3CCN(C)CC3)cc12`, 194 to 196 °C; with `CCS(=O)(=O)CCC(=O)NNC(=O)N1Cc2ccccc2Oc2ccc(N)cc21`, 172 to 179 °C.
`CCOC(=O)C(C=O)Cc1ccn(Cc2ccccc2)c(=O)c1` (stereo not given) displayed a melting point of 140 to 143 °C.
In turn, `COCc1nc2cccc(C(=O)OC)c2n1Cc1ccc(-c2ccccc2-c2nnn[nH]2)cc1` had a melting point of 191 to 194 °C.
In the case of `CCCCCCCCCCCCCCc1ccc(S(=O)(=O)Cl)cc1` it was 32 to 33 °C; in that of `O=C(NCCCN1CCN(Cc2ccc(Cl)cc2)CC1)NC1CCCCC1`, 109 to 112 °C.
With `CNCc1ccc2nc(NC(=O)c3ccc(C(C)(C)C)cc3)cn2c1` the figure was 204 to 205 °C; with `CC(C)(C)OC(=O)N1CCC(C#N)(c2ccccc2Cl)CC1`, 165 to 166 °C; with `CC=Cc1c(-c2ccc(C(C)(C)C)cc2)[nH]c2nccnc12`, 207 to 208 °C.
`CC(C)C(=O)CCC(C)C1CCC2(C#N)C3=CCC4CC(OC(=O)c5ccccc5)CCC4(C)C3CCC12C` (stereo not given) gave a melting point of 168 to 169 °C.
In the case of `Nc1nc(-c2cc(Cl)ccc2Cl)nc(N2CCN(C(c3ccccc3)c3ccccc3)CC2)n1` it was 217 to 218 °C.
Compound `NC(=O)c1cc2c(Oc3ccc(Cl)cc3)cncc2s1` displayed a melting point of 176 to 177 °C.
For the compound `CCOC(=O)Nc1ccccc1NS(=O)(=O)c1ccc(OC)cc1`, the melting point lay within 118 to 119 °C.
In the case of `O=C1NC(=O)C(S(=O)(=O)c2cccc3c(Br)cccc23)S1` (stereo not given) it was 189 to 190 °C.
With `Cc1nnc(-c2ccc3occ(-c4ccc(OCCS(C)(=O)=O)cc4)c3c2)o1` the figure was 132 to 133 °C.
`CS(=O)(=O)c1ccc(-c2cnn(CC(F)(F)F)c(=O)c2C2CCCCC2)cc1` came in with a melting point of 215 to 218 °C.
With `O=C1Nc2cccc(-c3cccc(NC(=O)c4ccc(O)cc4)c3)c2/C1=C/c1ccc[nH]1` the figure was 236 to 238 °C; with `CCOC(=O)C(C)(C)Oc1ccc(C=Cc2ccccc2)cc1`, 55 to 65 °C.
In the case of `CCS(=O)(=O)NC(=O)CCCCC1CCSS1` (stereo not given) it was 98 to 100 °C.
The compound `COc1cc(C(=O)c2cccs2)cc(OC)c1OC` returned a melting point of 83 °C.
In turn, `COc1cccc2cc(CCl)oc12` showed a melting point of 44.5 to 45 °C.
In the case of `BrCC(Br)c1ccc(-c2ccccc2)cc1` (stereo not given) it was 79 to 81 °C.
In the case of `C/C(=C\C=C(c1ccccc1)c1ccccc1)C(=O)O` it was 184 to 186 °C; in that of `CC(N)C(N)CC(=O)c1ccccc1` (stereo not given), 106 to 107 °C.
In the case of `OCCCCCCCCCCCc1ccc(O)c(O)c1` it was 92 to 93 °C; in that of `CC(C)(C)OC(=O)Nc1ncc(C=O)s1`, 173 to 175 °C; in that of `CSc1nc(C)c(Cl)c(Cl)n1`, 49 to 50 °C.
With `CC(c1ccc(-c2ccccc2)c(F)c1)c1cc(CO)no1` (stereo not given), the melting point lay within 127 to 128 °C.
With `O=c1c2ccccc2cc2n1CCS2(=O)=O` the figure was 208 to 211 °C.
`CCc1nc2c(cnn2CC)c(NC2CCOCC2)c1CNC(=O)c1cccc(C(=O)NCc2ccc(F)c(-c3cccc(CN4CCCCC4)c3)c2)c1` returned a melting point of 128 to 131 °C.
In the case of `O=C1Nc2ccccc2C2=NC(CBr)CN12` (stereo not given) it was 213 to 214 °C.
With `COc1ccc2c(c1)Sc1ccc(Cl)cc1C(O)C2` (stereo not given) the figure was 100 to 102 °C; with `COc1ccc(C(=O)N2CCC(N(C)c3ccccc3Cl)c3ccccc32)cc1OC` (stereo not given), 146 to 147 °C.
`CCN1C(=O)N(c2ccc(C#N)c(C(F)(F)F)c2)C(=O)C1(CF)CF`: the melting point is 129 to 130 °C.
With `O=S(=O)(Nc1ccc2c(OCc3ccc(-c4ccc(Cl)c(Cl)c4)cc3Cl)cccc2c1)C(F)(F)F` the figure was 169 to 170 °C; with `CC1CC(=O)NN=C1c1ccc(NC(=O)OCC2CC2)cc1` (stereo not given), 240 to 241 °C; with `C/C=C/C(=O)N1C(=O)OC(C)(C)[C@H]1c1ccccc1`, 104 °C.
With `O=C(NNC(=O)c1ccccc1Cl)c1ccccc1Cl` the figure was 217 to 219 °C; with `CC(C(=O)NC(C)(C)C)c1cc(Cl)ccc1C(=O)O` (stereo not given), 175 to 178 °C.
Consider `CCCOc1cc(C(=O)O)cc(N)c1C(=O)c1ccccc1`, for which the melting point lay in the range of 220 to 222 °C.
In the case of `CCc1nc2ccc(Cl)nc2n1Cc1ccc2oc(-c3ccccc3-c3nnn[nH]3)c(Br)c2c1` it was 162 to 165 °C; in that of `CCCc1nc2c(N)nc3ccc(-c4cccc(CN)c4)cc3c2s1`, 189 to 191 °C.
With `CC(=O)NCSC[C@H](NC(=O)OC(C)(C)C)C(=O)O` the figure was 110 to 112 °C.
With `O=C(N[C@@H](CSc1ccccc1)[C@H]1CO1)OCc1ccccc1` the figure was 61.7 °C.
Compound `CN(C)C=C(C#N)C(=O)Nc1cc(F)ccc1F` came in with a melting point of 175 to 176 °C.
The compound `Cc1cc(Br)sc1-c1nc(-c2c(F)cccc2Cl)nn1C` registered a melting point of 117 to 118 °C.
With `CC(=O)Nc1ccc(NC(=NC#N)Oc2ccccc2)cn1` the figure was 194 °C; with `CCC(C(C)=CC(CNC(=O)c1c[nH]cn1)=NO)[N+](=O)[O-]` (stereo not given), 157 to 158 °C; with `Cc1nc(Cl)c2cc3c(cc2n1)OCCO3`, 168 to 170 °C.
Compound `O=C(Nc1ccc([N+](=O)[O-])cc1Cl)c1ccc(C(=O)Nc2ccc([N+](=O)[O-])cc2Cl)cc1` returned a melting point of 339 °C.
In the case of `Cn1ncc(SCc2ccccc2)c(Cl)c1=O` it was 102 to 104 °C; in that of `O=C(NC1CCN(CCCOc2ccc3c4c(c(=O)oc3c2)CCC4)CC1)c1ccc([N+](=O)[O-])cc1`, 212 to 213 °C; in that of `COc1ccc(-n2nc(C)c(CC(=O)O)c2C)cc1`, 154 to 155 °C.
In the case of `COc1ccc(-c2ccnc(-c3cn(C)c(=O)n3-c3ccc(C(C)(C)C#N)cc3)c2)cn1` it was 187 °C; in that of `Nc1ccc(Nc2cccc3c2C(=O)c2ccccc2C3=O)cc1`, 175 to 182 °C.
With `COCc1cc2c(s1)CCCc1cc(=O)n(-c3ccc(OC)cc3)nc1-2` the figure was 115 to 117 °C.

Values taken from a melting point compilation (Tetko et al.; mined from patent text by program, amines drawn as free bases though some values may be those of a salt).
